Values quoted from earlier work, collected in PMC11070402, “New antiproliferative 3-substituted oxindoles inhibiting EGFR/VEGFR-2 and tubulin polymerization” (Molecular Diversity, 2023).

Molecular target: colchicine-binding site
Design: method as in PMID 34649064
Conditions: read-out: competitive inhibition at the colchicine-binding site IC50; cited from earlier work

COc1ccc2c(/C=C(\C)C(=O)c3cc(OC)c(OC)c([Se]C)c3)c[nH]c2c1 [XI]
IC50: 1300 nM
